Key:
Digitaria ciliaris [1] = test: Farming soil treatment test; type: in vivo; conditions: soil surface spray prior to weed growth, 30 days
Experimental: (§1) Field soil was filled into a 1/6000 are pot followed by seeding with Digitaria ciliaris, Chenopodium album and Amaranthus retroflexus and covering with soil.
(§2) Wettable powder of Target Compound (I) shown in Table 1 prepared in compliance with the preparation examples were diluted with water to the prescribed amount of chemical and uniformly sprayed onto each soil surface layer using 10 liters of sprayed water per are prior to weed growth following seeding.
(§3) After treating for 30 days in a glass greenhouse at an average atmospheric temperature of 30° C., the herbicidal efficacy thereof was investigated.
(§4) Evaluation of herbicidal efficacy was carried out in the same manner as the above-mentioned Test Example 1.

Chenopodium album [2] = test: Farming soil treatment test; type: in vivo; conditions: soil surface spray prior to weed growth, 30 days
Experimental: as §1, §2, §3, §4

Amaranthus retroflexus [3] = test: Farming soil treatment test; type: in vivo; conditions: soil surface spray prior to weed growth, 30 days
Experimental: as §1, §2, §3, §4

Digitaria ciliaris [4] = test: Weed foliar treatment test; type: in vivo; conditions: foliar spray at 1.0 to 2.0 leaf stage of Digitaria ciliaris, 3 weeks
Experimental: (§5) Soil was filled into a 1/6000 are pot followed by seeding with Digitaria ciliaris, Chenopodium album and Amaranthus retroflexus, covering with soil, and cultivating in a glass greenhouse at an average atmospheric temperature of 25° C.
(§6) Wettable powder of Target Compound (I) shown in Table 1 prepared in compliance with the preparation examples were diluted with water to the prescribed amount of chemical and uniformly sprayed onto the weeds using 15 liters of sprayed water per are when Digitaria ciliaris had grown to the 1.0 to 2.0 leaf stage.
(§7) After treating for 3 weeks in a glass greenhouse at an average atmospheric temperature of 25° C., the herbicidal efficacy thereof was investigated.
as §4

Chenopodium album [5] = test: Weed foliar treatment test; type: in vivo; conditions: foliar spray, 3 weeks
Experimental: as §5, §6, §7, §4

Amaranthus retroflexus [6] = test: Weed foliar treatment test; type: in vivo; conditions: foliar spray, 3 weeks
Experimental: as §5, §6, §7, §4

Rice plants = test: Paddy herbicidal activity test, phytotoxicity to transplanted rice; type: in vivo; conditions: rice transplanted at 2.0 leaf stage, 30 days
Experimental: (§8) Rice paddy soil was filled into a 1/10000 are pot followed by the addition of suitable amounts of water and chemical fertilizer, kneading, seeding with Echinochloa crus-galli, Monochoria vaginalis and Scirpus juncoides and maintaining in an irrigated state at a water depth of 3 cm.
(§9) Wettable powder of Target Compound (I) shown in Table 1 prepared in compliance with the preparation examples were diluted with a suitable amount of water, rice plants in the 2.0 leaf stage were transplanted during 3.5 leaf stage of Echinochloa crus-galli, and treated by dropping in chemical in the prescribed amount per are using a pipette.
as §3
(§10) Evaluation of herbicidal efficacy was carried out by comparing growth inhibition rate (%) with an untreated group, while evaluation of phytotoxicity was carried out by comparing growth inhibition rate (%) with the state of a complete eradication group, and were evaluated at 11 levels indicated below.

Scirpus juncoides = test: Paddy herbicidal activity test; type: in vivo; conditions: irrigated paddy pot, 30 days
Experimental: as §8, §9, §3, §10

Echinochloa crus-galli = test: Paddy herbicidal activity test; type: in vivo; conditions: irrigated paddy pot, treated at 3.5 leaf stage of Echinochloa crus-galli, 30 days
Experimental: as §8, §9, §3, §10

Monochoria vaginalis = test: Paddy herbicidal activity test; type: in vivo; conditions: irrigated paddy pot, 30 days
Experimental: as §8, §9, §3, §10

C#CCNc1c(C#N)cnn1-c1nn2c(c1Cl)CCCC2 [4.85, 4.156]
herbicidal efficacy (growth inhibition level) Digitaria ciliaris (Digitaria ciliaris [1]; 5 g a.i./10 a): 3 (3: 30% to less than 40%)
herbicidal efficacy (growth inhibition level) Digitaria ciliaris (Digitaria ciliaris [1]; 10 g a.i./10 a): 4 (4: 40% to less than 50%)
herbicidal efficacy (growth inhibition level) Chenopodium album (Chenopodium album [2]; 5 g a.i./10 a): 4 (4: 40% to less than 50%)
herbicidal efficacy (growth inhibition level) Chenopodium album (Chenopodium album [2]; 10 g a.i./10 a): 5 (5: 50% to less than 60%)
herbicidal efficacy (growth inhibition level) Amaranthus retroflexus (Amaranthus retroflexus [3]; 5 g a.i./10 a): 3 (3: 30% to less than 40%)
herbicidal efficacy (growth inhibition level) Amaranthus retroflexus (Amaranthus retroflexus [3]; 10 g a.i./10 a): 6 (6: 60% to less than 70%)
herbicidal efficacy (growth inhibition level) Digitaria ciliaris (Digitaria ciliaris [4]; 5 g a.i./10 a): 3 (3: 30% to less than 40%)
herbicidal efficacy (growth inhibition level) Digitaria ciliaris (Digitaria ciliaris [4]; 10 g a.i./10 a): 5 (5: 50% to less than 60%)
herbicidal efficacy (growth inhibition level) Chenopodium album (Chenopodium album [5]; 5 g a.i./10 a): 5 (5: 50% to less than 60%)
herbicidal efficacy (growth inhibition level) Chenopodium album (Chenopodium album [5]; 10 g a.i./10 a): 6 (6: 60% to less than 70%)
herbicidal efficacy (growth inhibition level) Amaranthus retroflexus (Amaranthus retroflexus [6]; 5 g a.i./10 a): 4 (4: 40% to less than 50%)
herbicidal efficacy (growth inhibition level) Amaranthus retroflexus (Amaranthus retroflexus [6]; 10 g a.i./10 a): 6 (6: 60% to less than 70%)
phytotoxicity (growth inhibition level) Rice plants (Rice plants; 1 g a.i./10 a): 2 (2: 20% to less than 30%)
phytotoxicity (growth inhibition level) Rice plants (Rice plants; 5 g a.i./10 a): 2 (2: 20% to less than 30%)
herbicidal efficacy (growth inhibition level) Scirpus juncoides (Scirpus juncoides; 1 g a.i./10 a): 0 (0 (exponent): 0% to less than 10% (growth inhibition rate))
herbicidal efficacy (growth inhibition level) Scirpus juncoides (Scirpus juncoides; 5 g a.i./10 a): 1 (1: 10% to less than 20%)
herbicidal efficacy (growth inhibition level) Echinochloa crus-galli (Echinochloa crus-galli; 1 g a.i./10 a): 2 (2: 20% to less than 30%)
herbicidal efficacy (growth inhibition level) Echinochloa crus-galli (Echinochloa crus-galli; 5 g a.i./10 a): 3 (3: 30% to less than 40%)
herbicidal efficacy (growth inhibition level) Monochoria vaginalis (Monochoria vaginalis; 1 g a.i./10 a): 1 (1: 10% to less than 20%)
herbicidal efficacy (growth inhibition level) Monochoria vaginalis (Monochoria vaginalis; 5 g a.i./10 a): 3 (3: 30% to less than 40%)

CC#CCNc1c(C#N)cnn1-c1nn2c(c1Cl)CCCC2 [4.131, 4.132]
herbicidal efficacy (growth inhibition level) Digitaria ciliaris (Digitaria ciliaris [1]; 5 g a.i./10 a): 3 (3: 30% to less than 40%)
herbicidal efficacy (growth inhibition level) Digitaria ciliaris (Digitaria ciliaris [1]; 10 g a.i./10 a): 4 (4: 40% to less than 50%)
herbicidal efficacy (growth inhibition level) Chenopodium album (Chenopodium album [2]; 5 g a.i./10 a): 3 (3: 30% to less than 40%)
herbicidal efficacy (growth inhibition level) Chenopodium album (Chenopodium album [2]; 10 g a.i./10 a): 4 (4: 40% to less than 50%)
herbicidal efficacy (growth inhibition level) Amaranthus retroflexus (Amaranthus retroflexus [3]; 5 g a.i./10 a): 4 (4: 40% to less than 50%)
herbicidal efficacy (growth inhibition level) Amaranthus retroflexus (Amaranthus retroflexus [3]; 10 g a.i./10 a): 5 (5: 50% to less than 60%)
herbicidal efficacy (growth inhibition level) Digitaria ciliaris (Digitaria ciliaris [4]; 5 g a.i./10 a): 3 (3: 30% to less than 40%)
herbicidal efficacy (growth inhibition level) Digitaria ciliaris (Digitaria ciliaris [4]; 10 g a.i./10 a): 4 (4: 40% to less than 50%)
herbicidal efficacy (growth inhibition level) Chenopodium album (Chenopodium album [5]; 5 g a.i./10 a): 4 (4: 40% to less than 50%)
herbicidal efficacy (growth inhibition level) Chenopodium album (Chenopodium album [5]; 10 g a.i./10 a): 5 (5: 50% to less than 60%)
herbicidal efficacy (growth inhibition level) Amaranthus retroflexus (Amaranthus retroflexus [6]; 5 g a.i./10 a): 4 (4: 40% to less than 50%)
herbicidal efficacy (growth inhibition level) Amaranthus retroflexus (Amaranthus retroflexus [6]; 10 g a.i./10 a): 6 (6: 60% to less than 70%)
phytotoxicity (growth inhibition level) Rice plants (Rice plants; 1 g a.i./10 a): 1 (1: 10% to less than 20%)
phytotoxicity (growth inhibition level) Rice plants (Rice plants; 5 g a.i./10 a): 1 (1: 10% to less than 20%)
herbicidal efficacy (growth inhibition level) Scirpus juncoides (Scirpus juncoides; 1 g a.i./10 a): 1 (1: 10% to less than 20%)
herbicidal efficacy (growth inhibition level) Scirpus juncoides (Scirpus juncoides; 5 g a.i./10 a): 3 (3: 30% to less than 40%)
herbicidal efficacy (growth inhibition level) Echinochloa crus-galli (Echinochloa crus-galli; 1 g a.i./10 a): 3 (3: 30% to less than 40%)
herbicidal efficacy (growth inhibition level) Echinochloa crus-galli (Echinochloa crus-galli; 5 g a.i./10 a): 4 (4: 40% to less than 50%)
herbicidal efficacy (growth inhibition level) Monochoria vaginalis (Monochoria vaginalis; 1 g a.i./10 a): 0 (0 (exponent): 0% to less than 10% (growth inhibition rate))
herbicidal efficacy (growth inhibition level) Monochoria vaginalis (Monochoria vaginalis; 5 g a.i./10 a): 1 (1: 10% to less than 20%)

C#CCCNc1c(C#N)cnn1-c1nn2c(c1Cl)CCCC2 [Compound 1, 1-(3-chloro-4,5,6,7-tetrahydropyrazolo[1,5-a]pyridin-2-yl)-5-(but-3-ynylamino)pyrazole-4-carbonitrile]
herbicidal efficacy (growth inhibition level) Digitaria ciliaris (Digitaria ciliaris [1]; 5 g a.i./10 a): 10 (10: 100%)
herbicidal efficacy (growth inhibition level) Digitaria ciliaris (Digitaria ciliaris [1]; 10 g a.i./10 a): 10 (10: 100%)
herbicidal efficacy (growth inhibition level) Chenopodium album (Chenopodium album [2]; 5 g a.i./10 a): 10 (10: 100%)
herbicidal efficacy (growth inhibition level) Chenopodium album (Chenopodium album [2]; 10 g a.i./10 a): 10 (10: 100%)
herbicidal efficacy (growth inhibition level) Amaranthus retroflexus (Amaranthus retroflexus [3]; 5 g a.i./10 a): 10 (10: 100%)
herbicidal efficacy (growth inhibition level) Amaranthus retroflexus (Amaranthus retroflexus [3]; 10 g a.i./10 a): 10 (10: 100%)
herbicidal efficacy (growth inhibition level) Digitaria ciliaris (Digitaria ciliaris [4]; 5 g a.i./10 a): 10 (10: 100%)
herbicidal efficacy (growth inhibition level) Digitaria ciliaris (Digitaria ciliaris [4]; 10 g a.i./10 a): 10 (10: 100%)
herbicidal efficacy (growth inhibition level) Chenopodium album (Chenopodium album [5]; 5 g a.i./10 a): 10 (10: 100%)
herbicidal efficacy (growth inhibition level) Chenopodium album (Chenopodium album [5]; 10 g a.i./10 a): 10 (10: 100%)
herbicidal efficacy (growth inhibition level) Amaranthus retroflexus (Amaranthus retroflexus [6]; 5 g a.i./10 a): 10 (10: 100%)
herbicidal efficacy (growth inhibition level) Amaranthus retroflexus (Amaranthus retroflexus [6]; 10 g a.i./10 a): 10 (10: 100%)
phytotoxicity (growth inhibition level) Rice plants (Rice plants; 1 g a.i./10 a): 0 (0 (exponent): 0% to less than 10% (growth inhibition rate))
phytotoxicity (growth inhibition level) Rice plants (Rice plants; 5 g a.i./10 a): 1 (1: 10% to less than 20%)
melting point: 130 to 131 °C
herbicidal efficacy (growth inhibition level) Scirpus juncoides (Scirpus juncoides; 1 g a.i./10 a): 8 (8: 80% to less than 90%)
herbicidal efficacy (growth inhibition level) Scirpus juncoides (Scirpus juncoides; 5 g a.i./10 a): 10 (10: 100%)
herbicidal efficacy (growth inhibition level) Echinochloa crus-galli (Echinochloa crus-galli; 1 g a.i./10 a): 9 (9: 90% to less than 100%)
herbicidal efficacy (growth inhibition level) Echinochloa crus-galli (Echinochloa crus-galli; 5 g a.i./10 a): 10 (10: 100%)
herbicidal efficacy (growth inhibition level) Monochoria vaginalis (Monochoria vaginalis; 1 g a.i./10 a): 9 (9: 90% to less than 100%)
herbicidal efficacy (growth inhibition level) Monochoria vaginalis (Monochoria vaginalis; 5 g a.i./10 a): 10 (10: 100%)

C#CCN(C)c1c(C#N)cnn1-c1nn2c(c1Cl)CCCC2 [Compound 4.73, 1-(3-chloro-4,5,6,7-tetrahydropyrazolo[1,5-a]pyridin-2-yl)-5-[methyl(prop-2-ynyl)amino]pyrazole-4-carbonitrile]
herbicidal efficacy (growth inhibition level) Digitaria ciliaris (Digitaria ciliaris [1]; 5 g a.i./10 a): 0 (0 (exponent): 0% to less than 10% (growth inhibition rate))
herbicidal efficacy (growth inhibition level) Digitaria ciliaris (Digitaria ciliaris [1]; 10 g a.i./10 a): 1 (1: 10% to less than 20%)
herbicidal efficacy (growth inhibition level) Chenopodium album (Chenopodium album [2]; 5 g a.i./10 a): 1 (1: 10% to less than 20%)
herbicidal efficacy (growth inhibition level) Chenopodium album (Chenopodium album [2]; 10 g a.i./10 a): 2 (2: 20% to less than 30%)
herbicidal efficacy (growth inhibition level) Amaranthus retroflexus (Amaranthus retroflexus [3]; 5 g a.i./10 a): 1 (1: 10% to less than 20%)
herbicidal efficacy (growth inhibition level) Amaranthus retroflexus (Amaranthus retroflexus [3]; 10 g a.i./10 a): 2 (2: 20% to less than 30%)
herbicidal efficacy (growth inhibition level) Digitaria ciliaris (Digitaria ciliaris [4]; 5 g a.i./10 a): 1 (1: 10% to less than 20%)
herbicidal efficacy (growth inhibition level) Digitaria ciliaris (Digitaria ciliaris [4]; 10 g a.i./10 a): 2 (2: 20% to less than 30%)
herbicidal efficacy (growth inhibition level) Chenopodium album (Chenopodium album [5]; 5 g a.i./10 a): 2 (2: 20% to less than 30%)
herbicidal efficacy (growth inhibition level) Chenopodium album (Chenopodium album [5]; 10 g a.i./10 a): 3 (3: 30% to less than 40%)
herbicidal efficacy (growth inhibition level) Amaranthus retroflexus (Amaranthus retroflexus [6]; 5 g a.i./10 a): 3 (3: 30% to less than 40%)
herbicidal efficacy (growth inhibition level) Amaranthus retroflexus (Amaranthus retroflexus [6]; 10 g a.i./10 a): 3 (3: 30% to less than 40%)
phytotoxicity (growth inhibition level) Rice plants (Rice plants; 1 g a.i./10 a): 0 (0 (exponent): 0% to less than 10% (growth inhibition rate))
phytotoxicity (growth inhibition level) Rice plants (Rice plants; 5 g a.i./10 a): 1 (1: 10% to less than 20%)
herbicidal efficacy (growth inhibition level) Scirpus juncoides (Scirpus juncoides; 1 g a.i./10 a): 0 (0 (exponent): 0% to less than 10% (growth inhibition rate))
herbicidal efficacy (growth inhibition level) Scirpus juncoides (Scirpus juncoides; 5 g a.i./10 a): 1 (1: 10% to less than 20%)
herbicidal efficacy (growth inhibition level) Echinochloa crus-galli (Echinochloa crus-galli; 1 g a.i./10 a): 2 (2: 20% to less than 30%)
herbicidal efficacy (growth inhibition level) Echinochloa crus-galli (Echinochloa crus-galli; 5 g a.i./10 a): 4 (4: 40% to less than 50%)
herbicidal efficacy (growth inhibition level) Monochoria vaginalis (Monochoria vaginalis; 1 g a.i./10 a): 3 (3: 30% to less than 40%)
herbicidal efficacy (growth inhibition level) Monochoria vaginalis (Monochoria vaginalis; 5 g a.i./10 a): 4 (4: 40% to less than 50%)
